# pIC50: −log10 of the molar value.
# Assays:
# [1] = test system: Human TLR7/8; test: Human PBMC cell-based assay, TLR7/8 stimulus (RNA-Ig), cytokine ELISA; conditions: primary human PBMC assay, TLR7/8 potency; ligand not given; read-out: Human PBMCs IC50
# Method in brief: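 Healthy-donor human PBMC, 2×10^5 cells/well (1×10^5 in later assay), pre-treated 30 min with compound (0.1% DMSO). Stimulated 20 h at 37 °C with RNA-Ig: 26-mer U1 snRNA stem loop IV phosphorothioate RNA at 2.5 μM plus anti-ssDNA antibody (1:25 or 1 ug/ml). Supernatant cytokines by ELISA.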
# [2] = biological target: T1, mouse TLR7 (Mus musculus, UniProt P58681); test: Short-term in vivo (STIV) assay: oral dosing, R848 s.c., plasma IL-6; design: female BALB/c mice (Jackson Labs, Bar Harbor, Me.) were dosed by oral gavage; tissue Jackson Labs; host or cells: living female BALB/c mice; plasma IL-6 after s.c. R848
# T1 sequence (P58681 27-1050): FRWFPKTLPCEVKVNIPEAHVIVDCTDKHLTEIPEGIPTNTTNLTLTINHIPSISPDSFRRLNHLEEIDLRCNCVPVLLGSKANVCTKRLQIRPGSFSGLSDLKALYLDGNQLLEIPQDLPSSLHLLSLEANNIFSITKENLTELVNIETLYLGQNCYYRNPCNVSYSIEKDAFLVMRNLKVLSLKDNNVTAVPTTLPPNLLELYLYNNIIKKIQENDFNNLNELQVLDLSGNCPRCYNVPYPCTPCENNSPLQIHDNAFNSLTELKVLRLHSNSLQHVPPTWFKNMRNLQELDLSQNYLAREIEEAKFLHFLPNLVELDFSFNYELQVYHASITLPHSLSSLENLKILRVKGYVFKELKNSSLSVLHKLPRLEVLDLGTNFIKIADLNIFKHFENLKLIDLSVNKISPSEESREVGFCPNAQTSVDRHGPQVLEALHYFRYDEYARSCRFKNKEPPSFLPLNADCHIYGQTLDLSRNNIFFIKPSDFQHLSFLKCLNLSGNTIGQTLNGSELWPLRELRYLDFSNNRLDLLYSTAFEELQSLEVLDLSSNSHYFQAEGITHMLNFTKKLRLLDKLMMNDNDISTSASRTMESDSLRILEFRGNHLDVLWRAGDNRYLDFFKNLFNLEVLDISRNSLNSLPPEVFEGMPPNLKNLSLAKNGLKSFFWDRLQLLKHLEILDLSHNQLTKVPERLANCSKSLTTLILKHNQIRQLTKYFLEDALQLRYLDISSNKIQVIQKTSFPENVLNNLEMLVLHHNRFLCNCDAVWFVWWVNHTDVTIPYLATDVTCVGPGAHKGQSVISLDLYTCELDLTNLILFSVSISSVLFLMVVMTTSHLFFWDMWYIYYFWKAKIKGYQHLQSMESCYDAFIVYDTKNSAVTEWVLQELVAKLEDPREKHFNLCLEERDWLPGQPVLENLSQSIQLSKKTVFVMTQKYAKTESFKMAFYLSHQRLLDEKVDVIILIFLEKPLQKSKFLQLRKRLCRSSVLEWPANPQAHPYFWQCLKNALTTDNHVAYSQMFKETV
# Description: Figure Legend: Female BALB/c mice were dosed by oral gavage with Vehicle alone (0.5% aqueous methyl-cellulose) or compound formulated in Vehicle at 33 mg/kg, 100 mg/kg or 300 mg/kg. […] (FIG. 1A).
# Short-term in vivo (STIV) assay: To assess compound potency in vivo against mouse TLR7, a short-term in vivo (STIV) assay was utilized. Briefly, mice were orally dosed with compounds and at various time points afterwards were injected subcutaneously with agonist R848 to stimulate TLR7. The plasma IL-6 level following R848 stimulation was then measured by ELISA to assess compound potency and duration-of-action.
# Short-term in vivo (STIV) assay. Six to eight week old female BALB/c mice (Jackson Labs, Bar Harbor, Me.) were dosed by oral gavage in 200 ul volume with antagonist compounds formulated in 0.5% aqueous methyl-cellulose (Sigma, St. Louis, Mo.). At various time points afterwards, mice were injected subcutaneously (s.c.) in 100 ul volume with 15 ug R848 (Resiquimod; GLSynthesis, Worcester, Mass.) to stimulate TLR7.
smiles,measurement,setting,value
CC1CN(c2ccc(C#N)c3ncccc23)CC(C(=O)NC2CNCCC2F)O1.Cl (mixture of isomers) [ER-899477],pIC50,[1],8.22
same,% Suppression vs. Vehicle,"[2]; 6 h, 100 mg/kg",96%
same,% Suppression vs. Vehicle,"[2]; 13 h, 100 mg/kg",68%
CC1CN(c2ccc(C#N)c3ncccc23)CC(CN2CCNC(C)C2C)O1 (centres unmarked) [ER-887137],pIC50,[1],8.70
same,% Suppression vs. Vehicle,"[2]; 3 h, 33 mg/kg",100%
same,% Suppression vs. Vehicle,"[2]; 3 h, 100 mg/kg",100%
same,% Suppression vs. Vehicle,"[2]; 3 h, 300 mg/kg",100%
same,% Suppression vs. Vehicle,"[2]; 6 h, 33 mg/kg",99%
same,% Suppression vs. Vehicle,"[2]; 6 h, 100 mg/kg",100%
same,% Suppression vs. Vehicle,"[2]; 6 h, 300 mg/kg",100%
same,% Suppression vs. Vehicle,"[2]; 19 h, 33 mg/kg",38%
same,% Suppression vs. Vehicle,"[2]; 19 h, 100 mg/kg",63%
same,% Suppression vs. Vehicle,"[2]; 19 h, 300 mg/kg",100%
C[C@@H]1CN(c2ccc(C#N)c3ncccc23)C[C@H](CN2CCN[C@@H](C)C2)O1 [ER-887270],pIC50,[1],9.00
same,% Suppression vs. Vehicle,"[2]; 6 h, 33 mg/kg",98%
same,% Suppression vs. Vehicle,"[2]; 13 h, 33 mg/kg",37%
same,% Suppression vs. Vehicle,"[2]; 13 h, 100 mg/kg",81%
same,% Suppression vs. Vehicle,"[2]; 13 h, 300 mg/kg",99%
same,% Suppression vs. Vehicle,"[2]; 24 h, 33 mg/kg",25%
same,% Suppression vs. Vehicle,"[2]; 24 h, 100 mg/kg",26%
same,% Suppression vs. Vehicle,"[2]; 24 h, 300 mg/kg",100%
Cc1cc(CO)cc(-c2ccc(C#N)c3ncccc23)c1 [ER-888201],pIC50,[1],8.40
same,% Suppression vs. Vehicle,"[2]; 6 h, 33 mg/kg",35%
same,% Suppression vs. Vehicle,"[2]; 6 h, 100 mg/kg",50%
same,% Suppression vs. Vehicle,"[2]; 6 h, 300 mg/kg",40%
same,% Suppression vs. Vehicle,"[2]; 19 h, 33 mg/kg",45%
same,% Suppression vs. Vehicle,"[2]; 19 h, 100 mg/kg",71%
same,% Suppression vs. Vehicle,"[2]; 19 h, 300 mg/kg",79%
CC1CN(c2ccc(C#N)c3ncccc23)CC(CN2CCC(NC(=O)c3ccccc3)CC2)O1 (centres unmarked) [ER-888321],pIC50,[1],7.66
same,% Suppression vs. Vehicle,"[2]; 3 h, 33 mg/kg",98%
same,% Suppression vs. Vehicle,"[2]; 3 h, 100 mg/kg",100%
same,% Suppression vs. Vehicle,"[2]; 6 h, 33 mg/kg",86%
same,% Suppression vs. Vehicle,"[2]; 6 h, 100 mg/kg",100%
same,% Suppression vs. Vehicle,"[2]; 13 h, 33 mg/kg",87%
same,% Suppression vs. Vehicle,"[2]; 13 h, 100 mg/kg",100%
same,% Suppression vs. Vehicle,"[2]; 19 h, 33 mg/kg",59%
same,% Suppression vs. Vehicle,"[2]; 19 h, 100 mg/kg",59%
CC(C)N1CCN(C[C@H]2CN(c3ccc(C#N)c4ncccc34)C[C@@H](C)O2)CC1 [ER-888322],pIC50,[1],7.74
same,% Suppression vs. Vehicle,"[2]; 6 h, 33 mg/kg",99%
same,% Suppression vs. Vehicle,"[2]; 6 h, 100 mg/kg",100%
same,% Suppression vs. Vehicle,"[2]; 6 h, 300 mg/kg",100%
same,% Suppression vs. Vehicle,"[2]; 19 h, 33 mg/kg",24%
same,% Suppression vs. Vehicle,"[2]; 19 h, 100 mg/kg",82%
same,% Suppression vs. Vehicle,"[2]; 19 h, 300 mg/kg",100%
C[C@@H]1CN(c2ccc(C#N)c3ncccc23)C[C@H](CN2CCN(C)[C@H](C)C2)O1 [ER-890346],pIC50,[1],8.22
same,% Suppression vs. Vehicle,"[2]; 3 h, 33 mg/kg",99%
same,% Suppression vs. Vehicle,"[2]; 19 h, 11 mg/kg",0%
same,% Suppression vs. Vehicle,"[2]; 19 h, 33 mg/kg",20%
CC[C@H]1CN(C[C@H]2CN(c3ccc(C#N)c4ncccc34)C[C@@H](C)O2)CCN1C [ER-890964],pIC50,[1],9.00
same,% Suppression vs. Vehicle,"[2]; 3 h, 33 mg/kg",96%
same,% Suppression vs. Vehicle,"[2]; 19 h, 33 mg/kg",0%
CCNC(=O)C1CN(c2ccc(C#N)c3ncccc23)CC(C)O1 (centres unmarked) [ER-894550],pIC50,[1],7.01
same,% Suppression vs. Vehicle,"[2]; 6 h, 33 mg/kg",98%
same,% Suppression vs. Vehicle,"[2]; 13 h, 33 mg/kg",72%
same,% Suppression vs. Vehicle,"[2]; 13 h, 100 mg/kg",97%
same,% Suppression vs. Vehicle,"[2]; 13 h, 300 mg/kg",99%
same,% Suppression vs. Vehicle,"[2]; 24 h, 33 mg/kg",48%
same,% Suppression vs. Vehicle,"[2]; 24 h, 100 mg/kg",71%
same,% Suppression vs. Vehicle,"[2]; 24 h, 300 mg/kg",99%
Cc1nsc(NC(=O)C2CN(c3ccc(C#N)c4ncccc34)CC(C)O2)n1 (centres unmarked) [ER-898923],pIC50,[1],6.20
CC1CN(c2ccc(C#N)c3ncccc23)CC(C(=O)NCC2(F)CCNCC2)O1 (centres unmarked) [ER-899019],pIC50,[1],7.85
CC1CN(c2ccc(C#N)c3ncccc23)CC(C(=O)NCC2CNC2)O1 (centres unmarked) [ER-899020],pIC50,[1],7.46
C[C@@H]1CN(c2ccc(C#N)c3ncccc23)C[C@H](C(=O)N2CC3(CCCNC3)C2)O1 [ER-899021],pIC50,[1],8.30
CC1CN(c2ccc(C#N)c3ncccc23)CC(C(=O)NCC2COC2)O1 (centres unmarked) [ER-899121],pIC50,[1],6.85
CNCCNC(=O)C1CN(c2ccc(C#N)c3ncccc23)CC(C)O1 (centres unmarked) [ER-899140],pIC50,[1],7.96
C[C@@H]1CN(c2ccc(C#N)c3ncccc23)C[C@H](C(=O)NCCN(C)C)O1 [ER-899154],pIC50,[1],7.85
CC1CN(c2ccc(C#N)c3ncccc23)CC(C(=O)NCCC(O)C(F)(F)F)O1 (centres unmarked) [ER-899160],pIC50,[1],6.60
CC1CN(c2ccc(C#N)c3ncccc23)CC(C(=O)NCC2CNCCO2)O1 (centres unmarked) [ER-899278],pIC50,[1],9.00
CC1CN(c2ccc(C#N)c3ncccc23)CC(C(=O)Nc2ccncc2)O1 (centres unmarked) [ER-899282],pIC50,[1],7.47
CC1CN(c2ccc(C#N)c3ncccc23)CC(C(=O)NCc2ccn[nH]2)O1 (centres unmarked) [ER-899287],pIC50,[1],6.92
CC1CN(c2ccc(C#N)c3ncccc23)CC(C(=O)NCC2CCCCN2C)O1 (centres unmarked) [ER-899293],pIC50,[1],7.89
C[C@@H]1CN(c2ccc(C#N)c3ncccc23)C[C@H](C(=O)Nc2n[nH]cc2C#N)O1 [ER-899295],pIC50,[1],7.49
C[C@@H]1CN(c2ccc(C#N)c3ncccc23)C[C@H](C(=O)N[C@H]2CN(C)C[C@H]2F)O1 [ER-899332],pIC50,[1],7.85
CC1CNCC(CNC(=O)C2CN(c3ccc(C#N)c4ncccc34)CC(C)O2)O1 (centres unmarked) [ER-899366],pIC50,[1],9.00
CC1CN(c2ccc(C#N)c3ncccc23)CC(C(=O)N2CC3CNCC3C2)O1 (centres unmarked) [ER-899367],pIC50,[1],7.92
CC1CN(c2ccc(C#N)c3ncccc23)CC(C(=O)NCC2CCCN2)O1 (centres unmarked) [ER-899414],pIC50,[1],7.60
CC1CN(c2ccc(C#N)c3ncccc23)CC(C(=O)NCC2CCCCN2)O1 (centres unmarked) [ER-899415],pIC50,[1],7.89
C[C@@H]1CN(c2ccc(C#N)c3ncccc23)C[C@H](C(=O)NC2CC3CCC(C2)N3)O1 (some centres unmarked) [ER-899416],pIC50,[1],6.37
CNC(=O)[C@H]1CN(c2ccc(C#N)c3ncccc23)C[C@@H](C)O1 [ER-899431],pIC50,[1],6.46
CC1CN(c2ccc(C#N)c3ncccc23)CC(C(=O)N2CCC(N(C)C)CC2)O1 (centres unmarked) [ER-899459],pIC50,[1],7.80
CC1CN(c2ccc(C#N)c3ncccc23)CC(C(=O)NC2CC3(CNC3)C2)O1 (centres unmarked) [ER-899479],pIC50,[1],8.70
C[C@@H]1CN(c2ccc(C#N)c3ncccc23)C[C@H](C(=O)N2CCC(N)CC2)O1 [ER-899588],pIC50,[1],8.15
CCN1CCC(NC(=O)[C@H]2CN(c3ccc(C#N)c4ncccc34)C[C@@H](C)O2)CC1 [ER-899626],pIC50,[1],9.00
